The experiment has as its target T1, Nav1.7 voltage-gated sodium channel (Homo sapiens, UniProt Q15858).
T1 construct: Gene(s) encoding the full-length protein of the voltage-gated sodium channel of interest are cloned and expressed; expressed in transfected cells
As to the kind of experiment: Whole-cell voltage clamp electrophysiology assay. It is filed as cell-based. The conditions noted are these: cells stably expressing the voltage-gated sodium channel of interest. From the text:
Gene(s) encoding the full-length protein of the voltage-gated sodium channel of interest are cloned and expressed under a suitable promoter in a suitable cell line, as well known in the art. […] Suitable screening assays are as follows.
Electrophysiological studies can be performed using automated patch-clamp electrophysiology platforms, like IonWorks HT, IonWorks Quattro, PatchXpress, QPatch or any other suitable platform. […] Suitable extracellular and intracellular buffer for such experiments are applied according to the instructions given by the manufacturer of the automated patch-clamp platforms. Cells that express the voltage-gated sodium channel protein of interest are exposed to drugs through the pipetting system integrated in the platforms. A suitable voltage stimulus protocol is used to activate the voltage-gated sodium channel proteins of interest through depolarisation from a defined holding potential.
Electrophysiological studies can also be performed using the whole cell configuration of the standard patch clamp technique. In this assay, cells that express the voltage-gated sodium channel protein of interest are exposed to the drugs by conventional microperfusion systems and a suitable voltage stimulus protocol is used to activate the voltage-gated sodium channels.
T1 sequence (Q15858 whole entry): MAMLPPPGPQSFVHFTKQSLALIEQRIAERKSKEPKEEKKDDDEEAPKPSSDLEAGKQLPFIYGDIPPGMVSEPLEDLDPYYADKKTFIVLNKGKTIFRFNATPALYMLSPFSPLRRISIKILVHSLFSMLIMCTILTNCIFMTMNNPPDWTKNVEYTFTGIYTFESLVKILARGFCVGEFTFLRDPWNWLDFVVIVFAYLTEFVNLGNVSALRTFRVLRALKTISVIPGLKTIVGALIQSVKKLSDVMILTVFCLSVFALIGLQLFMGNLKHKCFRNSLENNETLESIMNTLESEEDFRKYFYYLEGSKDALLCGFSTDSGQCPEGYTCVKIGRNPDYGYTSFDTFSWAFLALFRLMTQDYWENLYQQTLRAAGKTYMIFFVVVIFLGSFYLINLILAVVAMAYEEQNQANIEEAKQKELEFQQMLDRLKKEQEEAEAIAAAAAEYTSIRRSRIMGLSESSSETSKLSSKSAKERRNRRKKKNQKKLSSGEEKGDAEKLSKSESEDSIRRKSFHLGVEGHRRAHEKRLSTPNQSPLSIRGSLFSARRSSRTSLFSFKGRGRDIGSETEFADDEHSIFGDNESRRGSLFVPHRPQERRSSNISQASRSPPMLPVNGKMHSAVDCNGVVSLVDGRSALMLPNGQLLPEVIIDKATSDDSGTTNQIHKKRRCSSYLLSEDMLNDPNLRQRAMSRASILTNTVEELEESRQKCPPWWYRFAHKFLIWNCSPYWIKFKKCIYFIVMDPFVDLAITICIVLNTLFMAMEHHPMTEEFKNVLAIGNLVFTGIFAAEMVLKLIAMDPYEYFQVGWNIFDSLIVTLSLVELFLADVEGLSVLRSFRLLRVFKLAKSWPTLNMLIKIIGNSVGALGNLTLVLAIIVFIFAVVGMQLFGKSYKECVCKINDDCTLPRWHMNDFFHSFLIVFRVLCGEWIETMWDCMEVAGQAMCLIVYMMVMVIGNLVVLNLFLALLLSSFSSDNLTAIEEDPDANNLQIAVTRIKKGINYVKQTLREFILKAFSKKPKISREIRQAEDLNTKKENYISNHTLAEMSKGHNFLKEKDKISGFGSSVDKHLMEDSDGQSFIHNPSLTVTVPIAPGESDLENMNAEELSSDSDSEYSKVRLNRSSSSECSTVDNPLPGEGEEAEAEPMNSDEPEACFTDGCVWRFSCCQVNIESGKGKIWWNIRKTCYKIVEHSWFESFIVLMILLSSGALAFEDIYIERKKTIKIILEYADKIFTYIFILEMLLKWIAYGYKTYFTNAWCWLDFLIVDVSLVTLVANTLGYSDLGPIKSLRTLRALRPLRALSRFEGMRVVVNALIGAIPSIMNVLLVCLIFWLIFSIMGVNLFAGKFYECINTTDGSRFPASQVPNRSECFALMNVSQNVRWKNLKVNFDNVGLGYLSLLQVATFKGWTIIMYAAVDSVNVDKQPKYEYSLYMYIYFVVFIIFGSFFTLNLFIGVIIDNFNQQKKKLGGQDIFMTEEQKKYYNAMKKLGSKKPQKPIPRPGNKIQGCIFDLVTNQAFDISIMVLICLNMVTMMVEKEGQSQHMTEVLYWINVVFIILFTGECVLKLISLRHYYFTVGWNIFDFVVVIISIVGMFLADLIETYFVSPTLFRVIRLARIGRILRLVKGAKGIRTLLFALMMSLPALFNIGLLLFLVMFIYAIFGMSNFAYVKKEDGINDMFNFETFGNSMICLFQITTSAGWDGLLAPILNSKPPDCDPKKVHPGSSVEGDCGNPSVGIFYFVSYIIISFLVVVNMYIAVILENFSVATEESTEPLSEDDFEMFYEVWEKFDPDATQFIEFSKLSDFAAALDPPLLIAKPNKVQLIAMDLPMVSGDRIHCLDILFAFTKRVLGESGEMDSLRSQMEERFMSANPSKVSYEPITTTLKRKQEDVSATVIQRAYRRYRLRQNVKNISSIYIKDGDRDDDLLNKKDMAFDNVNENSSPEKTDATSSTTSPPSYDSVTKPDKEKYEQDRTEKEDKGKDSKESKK
What is called IC50 is the midpoint of a concentration-inhibition curve. A low value points to higher potency. Molecule `O=C(N[C@@H]1COc2cccc(-c3ccncc3)c2C1)c1ccc(OC(F)(F)F)cc1` [Example 1, N-[(3S)-5-Pyridin-4-yl-3,4-dihydro-2H-chromen-3-yl]-4-(trifluoromethoxy)-benzamide] showed an IC50 of 398 nM.

In turn, `CCCCOc1ccc(C(=O)N[C@@H]2COc3cccc(-c4ccncc4)c3C2)cc1` [Example 2, 4-Butoxy-N-[(3S)-5-pyridin-4-yl-3,4-dihydro-2H-chromen-3-yl]benzamide] showed an IC50 of 126 nM.

The molecule `O=C(N[C@@H]1CCc2cccc(-c3ccncc3)c2C1)c1ccc(OS(=O)(=O)C(F)(F)F)cc1` [Example 3, 4-{[(2R)-8-Pyridin-4-yl-1,2,3,4-tetrahydronaphthalen-2-yl]carbamoyl}phenyl trifluoromethanesulfonate] gave a concentration for half-maximal inhibition (IC50) of 251 nM.

With `O=C(N[C@@H]1COc2cccc(-c3ccccn3)c2C1)c1ccc(OC(F)(F)F)cc1` [Example 5, N-[(3S)-5-Pyridin-2-yl-3,4-dihydro-2H-chromen-3-yl]-4-(trifluoromethoxy)-benzamide], the IC50 is 1580 nM.

Turning to `Cn1cc(-c2cccc3c2C[C@H](NC(=O)c2ccc(OC(F)(F)F)cc2)CC3)cn1` [Example 6, N-[(2R)-8-(1-Methyl-1H-pyrazol-4-yl)-1,2,3,4-tetrahydronaphthalen-2-yl]-4-(trifluoromethoxy)-benzamide], the IC50 is 1000 nM.

`Cn1cc(-c2cccc3c2C[C@H](NC(=O)c2ccc(OS(=O)(=O)C(F)(F)F)cc2)CC3)cn1` [Example 7, 4-{[(2R)-8-(1-Methyl-1H-pyrazol-4-yl)-1,2,3,4-tetrahydronaphthalen-2-yl]carbamoyl}phenyl trifluoromethanesulfonate] showed an IC50 of 200 nM.

`Cc1nn(-c2ccccc2)nc1C(=O)N[C@@H]1CCc2cccc(-c3cnn(C)c3)c2C1` [Example 8, 5-Methyl-N-[(2R)-8-(1-methyl-1H-pyrazol-4-yl)-1,2,3,4-tetrahydronaphthalen-2-yl]-2-phenyl-2H-1,2,3-triazole-4-carboxamide]: 1580 nM corresponded to half-maximal inhibition (IC50).

`Cc1n[nH]c(C)c1-c1cccc2c1C[C@H](NC(=O)c1ccc(OC(F)(F)F)cc1)CC2` [Example 9, N-[(2R)-8-(3,5-Dimethyl-1H-pyrazol-4-yl)-1,2,3,4-tetrahydronaphthalen-2-yl]-4-(trifluoromethoxy)-benzamide] gave an IC50 of 6310 nM.

With `Cc1noc(C)c1-c1cccc2c1C[C@H](NC(=O)c1ccc(OC(F)(F)F)cc1)CC2` [Example 10, N-[(2R)-8-(3,5-Dimethylisoxazol-4-yl)-1,2,3,4-tetrahydronaphthalen-2-yl]-4-(trifluoromethoxy)-benzamide], the midpoint of inhibition, the IC50, lay at 3980 nM.

`Cc1noc(C)c1-c1cccc2c1C[C@H](NC(=O)c1ccc(OS(=O)(=O)C(F)(F)F)cc1)CC2` [Example 11, 4-{[(2R)-8-(3,5-Dimethylisoxazol-4-yl)-1,2,3,4-tetrahydronaphthalen-2-yl]carbamoyl}phenyl trifluoromethanesulfonate] had an IC50 of 631 nM.

With `O=C(N[C@@H]1CCc2cccc(-c3ccncc3)c2C1)c1ccc(OCC(F)(F)F)nc1` [Example 12, N-[(2R)-8-pyridin-4-yl-1,2,3,4-tetrahydronaphthalen-2-yl]-6-(2,2,2-trifluoroethoxy)nicotinamide], the half-inhibitory concentration (IC50) was 63.1 nM.

Molecule `O=C(N[C@@H]1CCc2cccc(-c3ccncc3)c2C1)c1ccc(OCCC(F)(F)F)nc1` [Example 13, N-[(2R)-8-pyridin-4-yl-1,2,3,4-tetrahydronaphthalen-2-yl]-6-(3,3,3-trifluoropropoxy)nicotinamide] showed an IC50 of 39.8 nM.

As for `CC(C)Oc1ccc(C(=O)N[C@@H]2CCc3cccc(-c4ccncc4)c3C2)cn1` [Example 14, 6-isopropoxy-N-[(2R)-8-pyridin-4-yl-1,2,3,4-tetrahydronaphthalen-2-yl]nicotin-amide], half-maximal inhibition (IC50) was put at 251 nM.

With `O=C(N[C@@H]1CCc2cccc(-c3ccncc3)c2C1)c1ccc(OC2CCCC2)nc1` [Example 15, 6-(cyclopentyloxy)-N-[(2R)-8-pyridin-4-yl-1,2,3,4-tetrahydronaphthalen-2-yl]nicotin-amide], the IC50 was 25.1 nM.

Molecule `COc1ccc(C(=O)N[C@@H]2CCc3cccc(-c4ccncc4)c3C2)c(OC)c1` [Example 16, 2,4-dimethoxy-N-[(2R)-8-pyridin-4-yl-1,2,3,4-tetrahydronaphthalen-2-yl]-benzamide] showed an IC50 of 2000 nM.

`Cc1nn(-c2ccccc2)nc1C(=O)N[C@@H]1CCc2cccc(-c3ccncc3)c2C1` [Example 17, 5-methyl-2-phenyl-N-[(2R)-8-pyridin-4-yl-1,2,3,4-tetrahydronaphthalen-2-yl]-2H-1,2,3-triazole-4-carboxamide]: the IC50 is 3980 nM.

Regarding `O=C(N[C@@H]1COc2cccc(-c3ccncc3)c2C1)c1ccc(OCC(F)(F)F)nc1` [Example 18, N-[(3S)-5-pyridin-4-yl-3,4-dihydro-2H-chromen-3-yl]-6-(2,2,2-trifluoroethoxy)nicotinamide], 100 nM corresponded to half-maximal inhibition (IC50).

Turning to `O=C(N[C@@H]1COc2cccc(-c3ccncc3)c2C1)c1ccc(OCCC(F)(F)F)nc1` [Example 19, N-[(3S)-5-pyridin-4-yl-3,4-dihydro-2H-chromen-3-yl]-6-(3,3,3-trifluoropropoxy)nicotin-amide], the IC50 was 79.4 nM.

In turn, `CC(C)Oc1ccc(C(=O)N[C@@H]2COc3cccc(-c4ccncc4)c3C2)cn1` [Example 20, 6-isopropoxy-N-[(3S)-5-pyridin-4-yl-3,4-dihydro-2H-chromen-3-yl]nicotin-amide] showed an IC50 of 158 nM.

In the case of `O=C(N[C@@H]1COc2cccc(-c3ccncc3)c2C1)c1ccc(OC2CCCC2)nc1` [Example 21, 6-(cyclopentyloxy)-N-[(3S)-5-pyridin-4-yl-3,4-dihydro-2H-chromen-3-yl]nicotin-amide], 63.1 nM corresponded to half-maximal inhibition (IC50).

As for `COc1ccc(C(=O)N[C@@H]2COc3cccc(-c4ccncc4)c3C2)c(OC)c1` [Example 22, 2,4-dimethoxy-N-[(3S)-5-pyridin-4-yl-3,4-dihydro-2H-chromen-3-yl]benzamide], the IC50 was 6310 nM.

With `Cc1nn(-c2ccccc2)nc1C(=O)N[C@@H]1COc2cccc(-c3ccncc3)c2C1` [Example 23, 5-methyl-2-phenyl-N-[(3S)-5-pyridin-4-yl-3,4-dihydro-2H-chromen-3-yl]-2H-1,2,3-triazole-4-carboxamide], the IC50 is 1260 nM.

For the molecule `CC(C)COc1ccc(C(=O)N[C@@H]2COc3cccc(-c4ccncc4)c3C2)cn1` [Example 24, 6-isobutoxy-N-[(3S)-5-pyridin-4-yl-3,4-dihydro-2H-chromen-3-yl]nicotin-amide], the midpoint of inhibition, the IC50, lay at 126 nM.

The molecule `CCOc1ccc(C(=O)N[C@@H]2COc3cccc(-c4ccncc4)c3C2)cn1` [Example 25, 6-ethoxy-N-[(3S)-5-pyridin-4-yl-3,4-dihydro-2H-chromen-3-yl]nicotin-amide] had an IC50 of 2000 nM.

The molecule `O=C(N[C@@H]1COc2cccc(-c3ccncc3)c2C1)c1ccc(OCC(F)F)nc1` [Example 26, 6-(2,2-difluoroethoxy)-N-[(3S)-5-pyridin-4-yl-3,4-dihydro-2H-chromen-3-yl]nicotin-amide] showed an IC50 of 631 nM.

As for `O=C(N[C@@H]1COc2cccc(-c3ccncc3)c2C1)c1ccc(OC(CF)CF)nc1` [Example 27, 6-[2-fluoro-1-(fluoromethyl)ethoxy]-N-[(3S)-5-pyridin-4-yl-3,4-dihydro-2H-chromen-3-yl]nicotin-amide], the IC50 was 631 nM.

The record behind these values is patent US8143408B2, “N-(8-heteroaryltetrahydronaphtalene-2yl) or N-(5-heteroarylchromane-3-yl) carboxamide derivatives for the treatment of pain” (AstraZeneca AB, priority 2007, dated 2012).
